Laboratory results: patent US8143293B2, “Kinase inhibitors useful for the treatment of myleoprolific diseases and other proliferative diseases” (Deciphera Pharmaceuticals, LLC, priority 2007, dated 2012)
Residue numbers refer to the chain shown, from its start.

Tests used:
[1] = molecular target: T1, Abl kinase (SEQ ID NO: 1) (Homo sapiens, UniProt P00519); assay: Abl kinase (SEQ ID NO:1) assay, pyruvate kinase/lactate dehydrogenase coupled; details: 2 h preincubation, ATP 500 μM; read-out: Biochemical IC50, Abl Enzyme Assay
T1 construct: purchased deCode Genetics
T1 sequence (P00519 with tags, fused parts or gaps): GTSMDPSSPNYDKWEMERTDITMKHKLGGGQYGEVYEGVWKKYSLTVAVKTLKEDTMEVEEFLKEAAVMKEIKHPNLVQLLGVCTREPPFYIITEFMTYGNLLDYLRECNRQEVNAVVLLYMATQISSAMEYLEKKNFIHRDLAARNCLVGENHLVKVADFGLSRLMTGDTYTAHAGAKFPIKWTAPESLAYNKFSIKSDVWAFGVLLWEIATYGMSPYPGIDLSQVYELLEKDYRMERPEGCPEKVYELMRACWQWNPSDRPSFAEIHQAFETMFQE
Experimental: Abl Kinase (SEQ ID NO:1) Assay
Activity of Abl kinase (SEQ ID NO: 1) was determined by following the production of ADP from the kinase reaction through coupling with the pyruvate kinase/lactate dehydrogenase system (e.g., Schindler, et al. Science (2000) 289, 1938-1942). In this assay, the oxidation of NADH (thus the decrease at A340 nm) was continuously monitored spectrophometrically. The reaction mixture (100 μl) contained Abl kinase (1 nM. Abl from deCode Genetics), peptide substrate (EAIYAAPFAKKK, 0.2 mM), MgCl2 (10 mM), pyruvate kinase (4 units), lactate dehydrogenase (0.7 units), phosphoenol pyruvate (1 mM), and NADH (0.28 mM) in 90 mM Tris buffer containing 0.2% octyl-glucoside and 3.5% DMSO, pH 7.5. Test compounds were incubated with Abl (SEQ ID NO:1) and other reaction reagents at 30° C. for 2 h before ATP (500 μM) was added to start the reaction. The absorption at 340 nm was monitored continuously for 2 hours at 30° C. on Polarstar Optima plate reader (BMG). The reaction rate was calculated using the 1.0 to 2.0 h time frame. Percent inhibition was obtained by comparison of reaction rate with that of a control (i.e. with no test compound). IC50 values were calculated from a series of percent inhibition values determined at a range of inhibitor concentrations using software routines as implemented in the GraphPad Prism software package.

[2] = molecular target: T2, C-Met kinase (SEQ ID NO:10) (Homo sapiens, UniProt P08581); assay: C-Met kinase (SEQ ID NO:10) assay, pyruvate kinase/lactate dehydrogenase coupled; details: 0.5 h preincubation, ATP 100 μM; read-out: Biochemical IC50, c-Met Enzyme Assay
T2 construct: 956-1390, from Invitrogen, catalogue #PV3143; His6 (N-terminal leader MSYYHHHHHH... with TEV and thrombin sites) (N); purchased Invitrogen PV3143
Experimental: C-Met Kinase (SEQ ID NO:10) Assay
Activity of C-Met kinase (SEQ ID NO:10) was determined by following the production of ADP from the kinase reaction through coupling with the pyruvate kinase/lactate dehydrogenase system (e.g., Schindler, et al. Science (2000) 289, 1938-1942). In this assay, the oxidation of NADH (thus the decrease at A340 nm) was continuously monitored spectrophometrically. The reaction mixture (100 μl) contained C-Met (c-Met residues; 956-1390, from Invitrogen, catalogue #PV3143, […]), polyE4Y (1 mg/ml), MgCl2 (10 mM), pyruvate kinase (4 units), lactate dehydrogenase (0.7 units), phosphoenol pyruvate (1 mM), and NADH (0.28 mM) in 90 mM Tris buffer containing 0.25 mM DTT, 0.2% octyl-glucoside and 1% DMSO, pH 7.5. Test compounds were incubated with C-Met (SEQ ID NO:10) and other reaction reagents at 22° C. for 0.5 h before ATP (100 μM) was added to start the reaction. The absorption at 340 nm was monitored continuously for 2 hours at 30° C. on Polarstar Optima plate reader (BMG). The reaction rate was calculated using the 1.0 to 2.0 h time frame. Percent inhibition was obtained by comparison of reaction rate with that of a control (i.e. with no test compound). IC50 values were calculated from a series of percent inhibition values determined at a range of inhibitor concentrations using software routines as implemented in the GraphPad Prism software package.

[3] = molecular target: T3, BaF3 cells transfected with wild type p210 BCR-Abl (Homo sapiens, UniProt P00519); assay: Ba/F3 p210 whole cell proliferation assay; type: cell-based; details: 72 hours, Cell Titer Blue; read-out: Whole Cell Antiproliferation IC50, Ba/F3 p210 whole cell proliferation assay
T3 construct: fused on or other part: P11274 (Breakpoint cluster region protein)
Experimental: (§1) BaF3 cells (parental or transfected with the following: wild type p210 BCR-Abl and T315I p210 BCR-Abl was obtained from Professor Richard Van Etten (New England Medical Center, Boston, Mass.). Briefly, cells were grown in RPMI 1640 supplemented with 10% characterized fetal bovine serum (HyClone, Logan, Utah) at 37 degrees Celsius, 5% CO2, 95% humidity. Cells were allowed to expand until reaching 80% saturation at which point they were subcultured or harvested for assay use.
(§2) A serial dilution of test compound was dispensed into a 96 well black clear bottom plate (Corning, Corning, N.Y.). For each cell line, three thousand cells were added per well in complete growth medium. Plates were incubated for 72 hours at 37 degrees Celsius, 5% CO2, 95% humidity. At the end of the incubation period Cell Titer Blue (Promega, Madison, Wis.) was added to each well and an additional 4.5 hour incubation at 37 degrees Celsius, 5% CO2, 95% humidity was performed. Plates were then read on a BMG Fluostar Optima (BMG, Durham, N.C.) using an excitation of 544 nm and an emission of 612 nm. Data was analyzed using Prism software (Graphpad, San Diego, Calif.) to calculate IC50's.

[4] = molecular target: T4, BaF3 cells transfected with T315I p210 BCR-Abl (Homo sapiens, UniProt P00519, T315I, cells depend on it); assay: Ba/F3 p210 T315I whole cell proliferation assay; type: cell-based; details: 72 hours, Cell Titer Blue; read-out: Whole Cell Antiproliferation IC50, Ba/F3 p210 T315I whole cell proliferation assay
T4 construct: fused on or other part: P11274 (Breakpoint cluster region protein)
Experimental: as §1, §2

[5] = molecular target: T5, T315I Abl kinase (SEQ ID NO:2) (Homo sapiens, UniProt P00519, T315I); assay: T315I Abl kinase (SEQ ID NO:2) assay, pyruvate kinase/lactate dehydrogenase coupled; details: 1 h preincubation, ATP 500 μM; read-out: Biochemical IC50, Abl T315I Enzyme Assay
T5 construct: purchased deCode Genetics
T5 sequence (P00519 with tags, fused parts or gaps T315I): T1 sequence (P00519 with tags, fused parts or gaps) with T94I
Experimental: Abl Kinase (SEQ ID NO:2) Assay
Activity of T315I Abl kinase (SEQ ID NO:2) was determined by following the production of ADP from the kinase reaction through coupling with the pyruvate kinase/lactate dehydrogenase system (e.g., Schindler, et al. Science (2000) 289, 1938-1942). In this assay, the oxidation of NADH (thus the decrease at A340 nm) was continuously monitored spectrophometrically. The reaction mixture (100 μl) contained Abl kinase (4.4 nM, […] Abl from deCode Genetics), peptide substrate (EAIYAAPFAKKK, 0.2 mM), MgCl2 (10 mM), pyruvate kinase (4 units), lactate dehydrogenase (0.7 units), phosphoenol pyruvate (1 mM), and NADH (0.28 mM) in 90 mM Tris buffer containing 0.2% octyl-glucoside and 1% DMSO, pH 7.5. Test compounds were incubated with T315I Abl (SEQ ID NO:2) and other reaction reagents at 30° C. for 1 h before ATP (500 μM) was added to start the reaction. The absorption at 340 nm was monitored continuously for 2 hours at 30° C. on Polarstar Optima plate reader (BMG). The reaction rate was calculated using the 1.0 to 2.0 h time frame. Percent inhibition was obtained by comparison of reaction rate with that of a control (i.e. with no test compound). IC50 values were calculated from a series of percent inhibition values determined at a range of inhibitor concentrations using software routines as implemented in the GraphPad Prism software package.

T2 sequence (P08581 with tags, fused parts or gaps): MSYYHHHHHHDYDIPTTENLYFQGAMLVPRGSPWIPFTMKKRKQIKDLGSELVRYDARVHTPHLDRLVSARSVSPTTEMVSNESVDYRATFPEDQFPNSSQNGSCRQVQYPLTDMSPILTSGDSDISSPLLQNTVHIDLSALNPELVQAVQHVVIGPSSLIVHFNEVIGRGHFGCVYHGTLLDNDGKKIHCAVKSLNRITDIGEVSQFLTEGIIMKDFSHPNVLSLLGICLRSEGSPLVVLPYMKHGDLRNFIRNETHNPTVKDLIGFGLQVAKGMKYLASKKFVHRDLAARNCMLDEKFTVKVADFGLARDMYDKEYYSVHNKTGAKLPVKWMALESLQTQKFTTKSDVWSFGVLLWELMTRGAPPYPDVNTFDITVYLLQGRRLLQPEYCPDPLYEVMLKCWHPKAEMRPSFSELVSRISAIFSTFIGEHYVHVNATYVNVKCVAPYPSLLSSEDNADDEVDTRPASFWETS

## CC(C)n1cc(NC(=O)Nc2ccc(Oc3ccnc(-c4cnn(C)c4)c3)cc2F)c(C(F)(F)F)n1 [Example 18, 1-(2-fluoro-4-(2-(1-methyl-1H-pyrazol-4-yl)pyridin-4-yloxy)phenyl)-3-(1-isopropyl-3-(trifluoromethyl)-1H-pyrazol-4-yl)urea]
[1]
  IC50: < 0.1 µM
[2]
  IC50: < 10 µM
[3]
  GI50: < 0.1 µM
[4]
  GI50: < 0.1 µM

## Cc1c(NC(=O)Nc2ccc(Oc3ccnc(-c4cnn(C)c4)c3)cc2F)cnn1C1CCCC1 [Example 23, 1-(1-cyclopentyl-5-methyl-1H-pyrazol-4-yl)-3-(2-fluoro-4-(2-(1-methyl-1H-pyrazol-4-yl)pyridin-4-yloxy)phenyl)urea]
[1]
  IC50: < 0.1 µM
[3]
  GI50: < 0.1 µM
[4]
  GI50: < 1 µM

## Cn1cc(-c2cc(Oc3ccc(NC(=O)Nc4cnc(C(C)(C)C)o4)c(F)c3)ccn2)cn1 [Example 26, 1-(2-tert-butyloxazol-5-yl)-3-(2-fluoro-4-(2-(1-methyl-1H-pyrazol-4-yl)pyridin-4-yloxy)phenyl)urea]
[1]
  IC50: < 0.1 µM

## Cn1cc(-c2cc(Oc3ccc(NC(=O)Nc4nc5ccc(F)cc5s4)c(F)c3)ccn2)cn1 [Example 29, 1-(2-fluoro-4-(2-(1-methyl-1H-pyrazol-4-yl)pyridin-4-yloxy)phenyl)-3-(6-fluorobenzo[d]thiazol-2-yl)urea]
[1]
  IC50: < 0.1 µM
[3]
  GI50: < 1 µM
[4]
  GI50: < 100 µM

## Cc1c(C(C)(C)C)noc1NC(=O)Nc1ccc(Oc2ccnc(-c3cnn(C)c3)c2)cc1F [Example 31, 1-(3-tert-butyl-4-methylisoxazol-5-yl)-3-(2-fluoro-4-(2-(1-methyl-1H-pyrazol-4-yl)pyridin-4-yloxy)phenyl)urea]
[1]
  IC50: < 0.1 µM
[5]
  IC50: < 0.1 µM
[3]
  GI50: < 0.1 µM
[4]
  GI50: < 0.1 µM

## CCc1cncc(NC(=O)Nc2ccc(Oc3ccnc(-c4cnn(C)c4)c3)cc2F)c1 [Example 32, 1-(5-ethylpyridin-3-yl)-3-(2-fluoro-4-(2-(1-methyl-1H-pyrazol-4-yl)pyridin-4-yloxy)phenyl)urea]
[1]
  IC50: < 0.1 µM
[5]
  IC50: < 0.1 µM
[3]
  GI50: < 0.1 µM
[4]
  GI50: < 0.1 µM

## Cn1cc(-c2cc(Oc3ccc(NC(=O)Nc4cc(C5CC5)nn4C)c(F)c3)ccn2)cn1 [Example 33, 1-(3-cyclopropyl-1-methyl-1H-pyrazol-5-yl)-3-(2-fluoro-4-(2-(1-methyl-1H-pyrazol-4-yl)pyridin-4-yloxy)phenyl)urea]
[1]
  IC50: < 1 µM
[5]
  IC50: < 1 µM
[3]
  GI50: < 1 µM
[4]
  GI50: < 1 µM

## CC(C)n1cnc(NC(=O)Nc2ccc(Oc3ccnc(-c4cnn(C)c4)c3)cc2F)c1 [Example 34, 1-(2-fluoro-4-(2-(1-methyl-1H-pyrazol-4-yl)pyridin-4-yloxy)phenyl)-3-(1-isopropyl-1H-imidazol-4-yl)urea]
[1]
  IC50: < 0.1 µM
[5]
  IC50: < 0.1 µM
[3]
  GI50: < 0.1 µM
[4]
  GI50: < 1 µM

## Cn1cc(-c2cc(Oc3ccc(NC(=O)NC4CC(=O)N(C(C)(C)C)C4)c(F)c3)ccn2)cn1 (stereo not shown) [Example 35, 1-(1-tert-butyl-5-oxopyrrolidin-3-yl)-3-(2-fluoro-4-(2-(1-methyl-1H-pyrazol-4-yl)pyridin-4-yloxy)phenyl)urea]
[1]
  IC50: < 1 µM
[5]
  IC50: < 10 µM
[3]
  GI50: < 1 µM
[4]
  GI50: < 100 µM

## Cn1cc(-c2cc(Oc3ccc(NC(=O)NC4CCN(C(C)(C)C)C4)c(F)c3)ccn2)cn1 (stereo not shown) [Example 36, 1-(1-tert-butylpyrrolidin-3-yl)-3-(2-fluoro-4-(2-(1-methyl-1H-pyrazol-4-yl)pyridin-4-yloxy)phenyl)urea]
[1]
  IC50: < 1 µM
[5]
  IC50: < 10 µM
[3]
  GI50: < 10 µM
[4]
  GI50: < 100 µM

## Cc1ncc(C(F)(F)F)cc1NC(=O)Nc1ccc(Oc2ccnc(-c3cnn(C)c3)c2)cc1F [Example 37, 1-(2-fluoro-4-(2-(1-methyl-1H-pyrazol-4-yl)pyridin-4-yloxy)phenyl)-3-(2-methyl-5-(trifluoromethyl)pyridin-3-yl)urea]
[1]
  IC50: < 0.1 µM
[5]
  IC50: < 0.1 µM
[3]
  GI50: < 0.1 µM
[4]
  GI50: < 0.1 µM

## Cc1cc(NC(=O)Nc2ccc(Oc3ccnc(-c4cnn(C)c4)c3)cc2F)nn1C(C)(C)C [Example 38, 1-(1-tert-butyl-5-methyl-1H-pyrazol-3-yl)-3-(2-fluoro-4-(2-(1-methyl-1H-pyrazol-4-yl)pyridin-4-yloxy)phenyl)urea]
[1]
  IC50: < 0.1 µM
[5]
  IC50: < 1 µM
[3]
  GI50: < 1 µM
[4]
  GI50: < 100 µM
